Results on 15 compounds are retold here after US20140343000A1 (priority 2011, published 2014).

Structures are written as SMILES.

The test system of the first experiment is recombinant NL4-3 virus (Renilla luciferase in nef, Gag P373S; NLRluc) in MT-2 cells. Description: whole plant or invertebrate. Format: cell-based, HIV. Particulars: Renilla, NL43, luciferase activity in cells infected for 4-5 days with NLRluc recombinants, serial dilutions of inhibitor; class symbols (key in Table 1); read-out: EC50. In short, it runs like this: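 Cells grown in serum-supplemented RPMI were exposed to graded inhibitor concentrations during a 4-5 day infection. Antiviral effect was then derived from luminescence after adding a combined lysis and dual-luciferase substrate mixture to each well.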
As usually defined, the EC50 is the concentration that produces a half-maximal response. On to `C=C(C)[C@@H]1CC[C@]2(NC(=O)C(=O)N(C)C)CC[C@]3(C)[C@H](CC[C@@H]4[C@@]5(C)CC=C(c6ccc(C(=O)O)cc6)C(C)(C)[C@@H]5CC[C@]43C)[C@@H]12` [Example 76, 4-((1R,3aS,5aR,5bR,7aR,11aS,11bR,13aR,13bR)-3a-(2-(dimethylamino)-2-oxoacetamido)-5a,5b,8,8,11a-pentamethyl-1-(prop-1-en-2-yl)-2,3,3a,4,5,5a,5b,6,7,7a,8,11,11a,11b,12,13,13a,13b-octadecahydro-1H-cyclopenta[a]chrysen-9-yl)benzoic acid], for which the EC50 is less than 100 nM.
Still for that read-out and setting: with `C=C(C)[C@@H]1CC[C@]2(NC(=O)Cc3nnn[nH]3)CC[C@]3(C)[C@H](CC[C@@H]4[C@@]5(C)CC=C(c6ccc(C(=O)O)cc6)C(C)(C)[C@@H]5CC[C@]43C)[C@@H]12` [Example 77, 4-((1R,3aS,5aR,5bR,7aR,11aS,11bR,13aR,13bR)-3a-(2-(1H-tetrazol-5-yl)acetamido)-5a,5b,8,8,11a-pentamethyl-1-(prop-1-en-2-yl)-2,3,3a,4,5,5a,5b,6,7,7a,8,11,11a,11b,12,13,13a,13b-octadecahydro-1H-cyclopenta[a]chrysen-9-yl)benzoic acid] the figure was less than 100 nM; with `C=C(C)[C@@H]1CC[C@]2(NC(=O)C(=O)Nc3nncs3)CC[C@]3(C)[C@H](CC[C@@H]4[C@@]5(C)CC=C(c6ccc(C(=O)O)cc6)C(C)(C)[C@@H]5CC[C@]43C)[C@@H]12` [Example 78, 4-((1R,3aS,5aR,5bR,7aR,11aS,11bR,13aR,13bR)-3a-(2-(1,3,4-thiadiazol-2-ylamino)-2-oxoacetamido)-5a,5b,8,8,11a-pentamethyl-1-(prop-1-en-2-yl)-2,3,3a,4,5,5a,5b,6,7,7a,8,11,11a,11b,12,13,13a,13b-octadecahydro-1H-cyclopenta[a]chrysen-9-yl)benzoic acid], less than 100 nM; with `C=C(C)[C@@H]1CC[C@]2(NC(=O)C(=O)Nc3nccs3)CC[C@]3(C)[C@H](CC[C@@H]4[C@@]5(C)CC=C(c6ccc(C(=O)O)cc6)C(C)(C)[C@@H]5CC[C@]43C)[C@@H]12` [Example 79, 4-((1R,3aS,5aR,5bR,7aR,11aS,11bR,13aR,13bR)-5a,5b,8,8,11a-pentamethyl-3a-(2-oxo-2-(thiazol-2-ylamino)acetamido)-1-(prop-1-en-2-yl)-2,3,3a,4,5,5a,5b,6,7,7a,8,11,11a,11b,12,13,13a,13b-octadecahydro-1H-cyclopenta[a]chrysen-9-yl)benzoic acid], less than 100 nM.
On the same count and under the same terms, next, `C=C(C)[C@@H]1CC[C@]2(NC(=O)CCN3CCS(=O)(=O)CC3)CC[C@]3(C)[C@H](CC[C@@H]4[C@@]5(C)CC=C(c6ccc(C(=O)O)cc6)C(C)(C)[C@@H]5CC[C@]43C)[C@@H]12` [Example 81, benzoic acid, 4-[(1R,3aS,5aR,5bR,7aR,11aS,11bR,13aR,13bR)-3a-[[3-(1,1-dioxido-4-thiomorpholinyl)-1-oxopropyl]amino]-2,3,3a,4,5,5a,5b,6,7,7a,8,11,11a,11b,12,13,13a,13b-octadecahydro-5a,5b,8,8,11a-pentamethyl-1-(1-methylethenyl)-1H-cyclopenta[a]chrysen-9-yl]]: less than 100 nM; `C=C(C)[C@@H]1CC[C@]2(NC(=O)CN3CCS(=O)(=O)CC3)CC[C@]3(C)[C@H](CC[C@@H]4[C@@]5(C)CC=C(c6ccc(C(=O)O)cc6)C(C)(C)[C@@H]5CC[C@]43C)[C@@H]12` [Example 82, benzoic acid, 4-[(1R,3aS,5aR,5bR,7aR,11aS,11bR,13aR,13bR)-3a-[[(1,1-dioxido-4-thiomorpholinyl)acetyl]amino]-2,3,3a,4,5,5a,5b,6,7,7a,8,11,11a,11b,12,13,13a,13b-octadecahydro-5a,5b,8,8,11a-pentamethyl-1-(1-methylethenyl)-1H-cyclopenta[a]chrysen-9-yl]]: less than 100 nM.
Same read-out and setting: with `C=C(C)[C@@H]1CC[C@]2(NC(=O)CN3C[C@@H](C)O[C@@H](C)C3)CC[C@]3(C)[C@H](CC[C@@H]4[C@@]5(C)CC=C(c6ccc(C(=O)O)cc6)C(C)(C)[C@@H]5CC[C@]43C)[C@@H]12` [Example 83, 4-((1R,3aS,5aR,5bR,7aR,11aS,11bR,13aR,13bR)-3a-(2-((2S,6R)-2,6-dimethylmorpholino)acetamido)-5a,5b,8,8,11a-pentamethyl-1-(prop-1-en-2-yl)-2,3,3a,4,5,5a,5b,6,7,7a,8,11,11a,11b,12,13,13a,13b-octadecahydro-1H-cyclopenta[a]chrysen-9-yl)benzoic acid] the figure was less than 100 nM.
Take `C=C(C)[C@@H]1CC[C@]2(NC(=O)CN3CCN(CCO)CC3)CC[C@]3(C)[C@H](CC[C@@H]4[C@@]5(C)CC=C(c6ccc(C(=O)O)cc6)C(C)(C)[C@@H]5CC[C@]43C)[C@@H]12` [Example 84, 4-((1R,3aS,5aR,5bR,7aR,11aS,11bR,13aR,13bR)-3a-(2-(4-(2-hydroxyethyl)piperazin-1-yl)acetamido)-5a,5b,8,8,11a-pentamethyl-1-(prop-1-en-2-yl)-2,3,3a,4,5,5a,5b,6,7,7a,8,11,11a,11b,12,13,13a,13b-octadecahydro-1H-cyclopenta[a]chrysen-9-yl)benzoic acid]: the EC50 is less than 100 nM.
As to `C=C(C)[C@@H]1CC[C@]2(NC(=O)CN3CCN(CC)CC3)CC[C@]3(C)[C@H](CC[C@@H]4[C@@]5(C)CC=C(c6ccc(C(=O)O)cc6)C(C)(C)[C@@H]5CC[C@]43C)[C@@H]12` [Example 85, 4-((1R,3aS,5aR,5bR,7aR,11aS,11bR,13aR,13bR)-3a-(2-(4-ethylpiperazin-1-yl)acetamido)-5a,5b,8,8,11a-pentamethyl-1-(prop-1-en-2-yl)-2,3,3a,4,5,5a,5b,6,7,7a,8,11,11a,11b,12,13,13a,13b-octadecahydro-1H-cyclopenta[a]chrysen-9-yl)benzoic acid], the EC50 was less than 100 nM.
Still for that read-out and setting: with `C=C(C)[C@@H]1CC[C@]2(NC(=O)CN(C)CCOC)CC[C@]3(C)[C@H](CC[C@@H]4[C@@]5(C)CC=C(c6ccc(C(=O)O)cc6)C(C)(C)[C@@H]5CC[C@]43C)[C@@H]12` [Example 86, 4-((1R,3aS,5aR,5bR,7aR,11aS,11bR,13aR,13bR)-3a-(2-((2-methoxyethyl)(methyl)amino)acetamido)-5a,5b,8,8,11a-pentamethyl-1-(prop-1-en-2-yl)-2,3,3a,4,5,5a,5b,6,7,7a,8,11,11a,11b,12,13,13a,13b-octadecahydro-1H-cyclopenta[a]chrysen-9-yl)benzoic acid] the figure was less than 100 nM; with `C=C(C)[C@@H]1CC[C@]2(NC(=O)Cn3cc(-c4ccccc4)cn3)CC[C@]3(C)[C@H](CC[C@@H]4[C@@]5(C)CC=C(c6ccc(C(=O)O)cc6)C(C)(C)[C@@H]5CC[C@]43C)[C@@H]12` [Example 87, 4-((1R,3aS,5aR,5bR,7aR,11aS,11bR,13aR,13bR)-5a,5b,8,8,11a-pentamethyl-3a-(2-(4-phenyl-1H-pyrazol-1-yl)acetamido)-1-(prop-1-en-2-yl)-2,3,3a,4,5,5a,5b,6,7,7a,8,11,11a,11b,12,13,13a,13b-octadecahydro-1H-cyclopenta[a]chrysen-9-yl)benzoic acid], less than 100 nM; with `C=C(C)[C@@H]1CC[C@]2(NC(=O)Cn3ccnn3)CC[C@]3(C)[C@H](CC[C@@H]4[C@@]5(C)CC=C(c6ccc(C(=O)O)cc6)C(C)(C)[C@@H]5CC[C@]43C)[C@@H]12` [Example 88, 4-((1R,3aS,5aR,5bR,7aR,11aS,11bR,13aR,13bR)-3a-(2-(1H-1,2,3-triazol-1-yl)acetamido)-5a,5b,8,8,11a-pentamethyl-1-(prop-1-en-2-yl)-2,3,3a,4,5,5a,5b,6,7,7a,8,11,11a,11b,12,13,13a,13b-octadecahydro-1H-cyclopenta[a]chrysen-9-yl)benzoic acid], less than 100 nM.
On the same count and under the same terms, with `C=C(C)[C@@H]1CC[C@]2(NC(=O)Cn3ccnc3)CC[C@]3(C)[C@H](CC[C@@H]4[C@@]5(C)CC=C(c6ccc(C(=O)O)cc6)C(C)(C)[C@@H]5CC[C@]43C)[C@@H]12` [Example 89, 4-((1R,3aS,5aR,5bR,7aR,11aS,11bR,13aR,13bR)-3a-(2-(1H-imidazol-1-yl)acetamido)-5a,5b,8,8,11a-pentamethyl-1-(prop-1-en-2-yl)-2,3,3a,4,5,5a,5b,6,7,7a,8,11,11a,11b,12,13,13a,13b-octadecahydro-1H-cyclopenta[a]chrysen-9-yl)benzoic acid] the figure was less than 100 nM.

Still in this experiment, the particulars now being: Renilla, NL43, luciferase activity in cells infected for 4-5 days with NLRluc recombinants, serial dilutions of inhibitor; numeric values; read-out: EC50.
Consider `C=C(C)[C@@H]1CC[C@]2(NC(=O)C(=O)NC3CCCCC3)CC[C@]3(C)[C@H](CC[C@@H]4[C@@]5(C)CC=C(c6ccc(C(=O)O)cc6)C(C)(C)[C@@H]5CC[C@]43C)[C@@H]12` [Example 80, 4-((1R,3aS,5aR,5bR,7aR,11aS,11bR,13aR,13bR)-3a-(2-(cyclohexylamino)-2-oxoacetamido)-5a,5b,8,8,11a-pentamethyl-1-(prop-1-en-2-yl)-2,3,3a,4,5,5a,5b,6,7,7a,8,11,11a,11b,12,13,13a,13b-octadecahydro-1H-cyclopenta[a]chrysen-9-yl)benzoic acid], for which the 50% effective concentration (EC50) came out at 110 nM.
For the compound `C=C(C)[C@@H]1CC[C@]2(NC(=O)Cn3ccc4ccccc43)CC[C@]3(C)[C@H](CC[C@@H]4[C@@]5(C)CC=C(c6ccc(C(=O)O)cc6)C(C)(C)[C@@H]5CC[C@]43C)[C@@H]12` [Example 90, 4-((1R,3aS,5aR,5bR,7aR,11aS,11bR,13aR,13bR)-3a-(2-(1H-indol-1-yl)acetamido)-5a,5b,8,8,11a-pentamethyl-1-(prop-1-en-2-yl)-2,3,3a,4,5,5a,5b,6,7,7a,8,11,11a,11b,12,13,13a,13b-octadecahydro-1H-cyclopenta[a]chrysen-9-yl)benzoic acid], the EC50 came out at 20 nM.
